Assays:
Cyclic GMP-AMP synthase [1] = biological target: T1, Cyclic GMP-AMP synthase (Homo sapiens, UniProt Q8N884); assay: Inhibition of recombinant His6-SUMO tagged human CGAS expressed in Escherichia coli BL21/pLys cells incubated for 20 mins by Kinase Glo chemiluminescence assay
Cyclic GMP-AMP synthase [2] = biological target: T1, Cyclic GMP-AMP synthase; assay: Inhibition of CGAS in human THP1 cells transfected with interferon stimulatory DNA and measured after 16 hrs by Gaussia luciferase reporter gene assay; type: cell-based
Cyclic GMP-AMP synthase [3] = biological target: T1, Cyclic GMP-AMP synthase; assay: Inhibition of CGAS in human THP1 cells transfected with mock Sendai virus and measured after 16 hrs by Gaussia luciferase reporter gene assay; type: cell-based

T1 sequence (Q8N884 whole entry): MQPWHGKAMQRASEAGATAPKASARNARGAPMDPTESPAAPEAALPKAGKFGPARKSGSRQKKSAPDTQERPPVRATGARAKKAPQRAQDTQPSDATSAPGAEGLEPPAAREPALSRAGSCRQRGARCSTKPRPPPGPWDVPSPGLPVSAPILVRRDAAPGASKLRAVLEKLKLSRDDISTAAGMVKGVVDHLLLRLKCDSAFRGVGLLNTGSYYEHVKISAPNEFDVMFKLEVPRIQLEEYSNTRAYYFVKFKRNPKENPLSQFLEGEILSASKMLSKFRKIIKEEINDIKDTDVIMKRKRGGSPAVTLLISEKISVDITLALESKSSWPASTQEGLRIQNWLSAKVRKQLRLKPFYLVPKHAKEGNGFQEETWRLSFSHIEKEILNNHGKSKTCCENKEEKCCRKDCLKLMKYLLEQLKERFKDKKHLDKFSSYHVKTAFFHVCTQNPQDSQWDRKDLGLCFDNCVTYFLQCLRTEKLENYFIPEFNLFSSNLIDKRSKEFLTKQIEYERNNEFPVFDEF

Row | Compound | IC50 (Cyclic GMP-AMP synthase [1]) [nM] | IC50 (Cyclic GMP-AMP synthase [2]) [nM] | IC50 (Cyclic GMP-AMP synthase [3]) [nM]
1 | CN1C(=O)S/C(=C\c2cc(OCc3cnc(Cl)nc3N)c(O)c(F)c2Br)C1=O | ≤ 500 | 2500 to 10000 | –
2 | CN1C(=O)S/C(=C\c2cc(OCc3cnc(N)nc3)c(O)cc2Br)C1=O | ≤ 500 | ≤ 2500 | ≥ 10000
3 | CC(Oc1cc(/C=C2\SC(=O)N(C)C2=O)c(Br)cc1O)c1cncnc1N (stereo not drawn) | ≤ 500 | 2500 to 10000 | ≥ 10000
4 | CN1C(=O)S/C(=C\c2cc(OCc3cnc([S+](C)[O-])nc3N)c(O)c(F)c2Br)C1=O (stereo not drawn) | ≤ 500 | ≥ 10000 | –
5 | CN1C(=O)S/C(=C\c2cc(O)c(O)cc2Br)C1=O | ≥ 10000 | 2500 to 10000 | –
6 | CN1C(=O)S/C(=C\c2cc(OCc3cnc(Cl)nc3)c(O)cc2Br)C1=O | ≤ 500 | 2500 to 10000 | ≥ 10000
7 | CN1C(=O)S/C(=C\c2cc(OCc3cncnc3)c(O)c(F)c2Br)C1=O | ≤ 500 | 2500 to 10000 | –
8 | CN1C(=O)S/C(=C\c2cc(OCc3cccnc3)c(O)c(F)c2Br)C1=O | ≤ 500 | 2500 to 10000 | –
9 | CC(Oc1cc(/C=C2\SC(=O)N(C)C2=O)c(Br)c(F)c1O)c1cncnc1N (stereo not drawn) | 500 to 10000 | ≥ 10000 | –
10 | CN1C(=O)S/C(=C\c2cc(OCC3CCCCC3)c(O)cc2Br)C1=O | ≥ 10000 | 2500 to 10000 | 2500 to 10000
11 | COc1cc(/C=C2\SC(=S)N(C)C2=O)c(Br)cc1O | ≤ 500 | 2500 to 10000 | –
12 | CN1C(=O)S/C(=C\c2cc(OCc3cccnc3)c(O)cc2Br)C1=O | ≤ 500 | 2500 to 10000 | –
13 | CN1C(=O)S/C(=C\c2cc(OCc3cnc(Cl)nc3)c(O)c(F)c2Br)C1=O | ≥ 10000 | 2500 to 10000 | –
14 | COc1cc(/C=C2\SC(=O)N(C)C2=O)c(Br)cc1NS(=O)(=O)c1csc(N)n1 | 500 to 10000 | ≤ 2500 | –
15 | COc1cc(/C=C2\SC(=O)N(C)C2=O)c(Br)c(F)c1O | ≤ 500 | 2500 to 10000 | ≥ 10000
16 | CCC(Oc1cc(/C=C2\SC(=O)N(C)C2=O)c(Br)c(F)c1O)c1cnc(Cl)nc1 (stereo not drawn) | 500 to 10000 | – | –
17 | COc1cc(/C=C2\SC(=O)N(C)C2=O)c(I)cc1O | ≤ 500 | 2500 to 10000 | ≥ 10000
18 | CN1C(=O)S/C(=C\c2cc3cc[nH]c3c(F)c2Br)C1=O | 500 to 10000 | – | –

Row | Compound | IC50 (Cyclic GMP-AMP synthase [1]) [nM] | IC50 (Cyclic GMP-AMP synthase [2]) [nM] | IC50 (Cyclic GMP-AMP synthase [3]) [nM]
19 | C#CCOc1cc(/C=C2\SC(=O)N(C)C2=O)c(Br)cc1O | 500 to 10000 | 2500 to 10000 | –
20 | CN1C(=O)S/C(=C\c2cc(OC(F)(F)F)c(Oc3cnc(N)s3)cc2Br)C1=O | ≥ 10000 | – | –
21 | CN1C(=O)S/C(=C\c2cc(OCc3cnc(NCc4cccnc4)nc3)c(O)c(F)c2Br)C1=O | 500 to 10000 | 2500 to 10000 | –
22 | COc1cc(/C=C2\SC(=O)N(C)C2=O)c(Br)cc1NS(=O)(=O)c1ccccn1 | ≥ 10000 | 2500 to 10000 | –
23 | CC(C)C(=O)N1CCC(COc2cc(/C=C3\SC(=O)N(C)C3=O)c(Br)cc2O)CC1 | ≥ 10000 | 2500 to 10000 | ≥ 10000
24 | CN1C(=O)S/C(=C\c2cc(OCc3ccncc3)c(O)cc2Br)C1=O | 500 to 10000 | ≤ 2500 | –
25 | COc1cc(/C=c2\sc3nccn3c2=O)c(Br)cc1O | ≤ 500 | 2500 to 10000 | –
26 | CC(C)n1ccc(COc2cc(/C=C3\SC(=O)N(C)C3=O)c(Br)cc2O)cc1=O | ≥ 10000 | 2500 to 10000 | ≥ 10000
27 | CN1C(=O)S/C(=C\c2cc(OCc3cccc4[nH]ccc34)c(O)cc2Br)C1=O | 500 to 10000 | 2500 to 10000 | –
28 | CN1C(=O)S/C(=C\c2cc(OC(F)(F)F)c(O)cc2Br)C1=O | ≥ 10000 | ≤ 2500 | 2500 to 10000
29 | CN1C(=O)S/C(=C\c2cc(Oc3cccc4c3COCC4)c(O)cc2Br)C1=O | ≥ 10000 | – | –
30 | CN1C(=O)S/C(=C\c2cc(OCc3cnc[nH]3)c(O)cc2Br)C1=O | ≥ 10000 | 2500 to 10000 | ≥ 10000
31 | CC(Oc1cc(/C=C2\Sc3ncccc3C2=O)c(Br)cc1O)c1cnc(N)nc1 (stereo not drawn) | ≤ 500 | ≤ 2500 | ≥ 10000
32 | CN1C(=O)S/C(=C\c2cc(OCc3ccc(N)nc3)c(O)cc2Br)C1=O | ≥ 10000 | 2500 to 10000 | 2500 to 10000
33 | CN1C(=O)S/C(=C\c2cc(CCc3cnc(N)nc3)c(O)cc2Br)C1=O | 500 to 10000 | – | –
34 | CN1C(=O)S/C(=C\c2cc(Oc3cnc(N)s3)c(O)c(F)c2Br)C1=O | 500 to 10000 | – | –
35 | CN1C(=O)S/C(=C\c2cc(OCc3ncc(N)cn3)c(O)cc2Br)C1=O | ≥ 10000 | 2500 to 10000 | ≥ 10000
36 | CN1C(=O)S/C(=C\c2cc(OCC(=O)c3cnc(N)nc3)c(O)c(F)c2Br)C1=O | 500 to 10000 | 2500 to 10000 | –

Continued, values first:

Row | IC50 (Cyclic GMP-AMP synthase [1]) [nM] | IC50 (Cyclic GMP-AMP synthase [2]) [nM] | IC50 (Cyclic GMP-AMP synthase [3]) [nM] | Compound
37 | 500 to 10000 | 2500 to 10000 | ≥ 10000 | O=C1/C(=C/c2cc(OC(F)(F)F)c(O)cc2Br)Sc2ncccc21
38 | ≥ 10000 | – | – | CC(=O)c1cc(/C=C2\SC(=O)N(C)C2=O)c(Br)cc1Oc1cnc(N)s1
39 | ≤ 500 | 2500 to 10000 | – | CCOc1cc(/C=C2\Sc3ncccc3C2=O)c(Br)cc1O
40 | ≤ 500 | 2500 to 10000 | – | O=C1/C(=C/c2cc(OCc3cccnc3)c(O)cc2Br)Sc2ncccc21
41 | ≤ 500 | 2500 to 10000 | – | COc1cc(/C=C2\Sc3ncccc3C2=O)c(Br)cc1O
42 | ≤ 500 | ≤ 2500 | ≥ 10000 | CNc1ncc(COc2cc(/C=C3\SC(=O)N(C)C3=O)c(Br)cc2O)cn1
43 | ≤ 500 | ≤ 2500 | ≥ 10000 | Nc1ncc(COc2cc(/C=C3\Sc4ncccc4C3=O)c(Br)c(F)c2O)cn1
44 | ≤ 500 | ≤ 2500 | – | COc1cc(/C=C2\SC(=O)N(C)C2=O)c(Cl)cc1O
45 | ≤ 500 | 2500 to 10000 | ≥ 10000 | COc1cc(/C=C2\Sc3ncccc3C2=O)c(Br)c(F)c1O
46 | ≤ 500 | ≤ 2500 | – | Cc1nc(N)ncc1COc1cc(/C=C2\Sc3ncccc3C2=O)c(Br)cc1O
47 | ≤ 500 | ≤ 2500 | ≥ 10000 | CN1C(=O)S/C(=C\c2cc(OCc3cn[nH]c3)c(O)cc2Br)C1=O
48 | ≤ 500 | 2500 to 10000 | ≥ 10000 | Nc1ncncc1COc1cc(/C=C2\Sc3ncccc3C2=O)c(Br)cc1O
49 | 500 to 10000 | ≤ 2500 | – | Nc1ncc(COc2cc(/C=c3\sc4nccn4c3=O)c(Br)cc2O)cn1
50 | ≤ 500 | 2500 to 10000 | – | CC(Oc1cc(/C=C2\Sc3ncccc3C2=O)c(Br)cc1O)c1cnc(NCCO)nc1 (stereo not drawn)
51 | ≥ 10000 | – | – | CN1C(=O)S/C(=C\c2cc(Oc3ccc(-c4ccccn4)cc3)c(O)cc2Br)C1=O
52 | ≥ 10000 | – | – | CN1C(=O)S/C(=C\c2cc(Oc3ccc(-c4ccncc4)cc3)c(O)cc2Br)C1=O
53 | ≥ 10000 | – | – | CN1C(=O)S/C(=C\c2cc(CCc3ccc([S+](C)[O-])cc3)c(O)cc2Br)C1=O (stereo not drawn)
54 | ≤ 500 | ≤ 2500 | ≥ 10000 | CN1C(=O)S/C(=C\c2cc(OCc3cnc(N)nc3)c(O)c(F)c2Br)C1=O
55 | ≥ 10000 | – | – | CSc1ncncc1C(=O)C(C)Oc1cc(/C=C2\SC(=O)N(C)C2=O)c(Br)c(F)c1O (stereo not drawn)
56 | ≤ 500 | ≤ 2500 | ≥ 10000 | COc1cc(/C=C2\SC(=O)N(C)C2=O)c(Br)cc1O
57 | ≥ 10000 | – | – | CN1C(=O)S/C(=C\c2cc(Oc3cccc4cnccc34)c(O)cc2Br)C1=O
58 | ≤ 500 | ≤ 2500 | – | CN1C(=O)S/C(=C\c2cc(OCCc3cnc(N)nc3)c(O)cc2Br)C1=O
59 | 500 to 10000 | 2500 to 10000 | – | CCN1C(=O)S/C(=C\c2cc(OC)c(O)cc2Br)C1=O

Row | IC50 (Cyclic GMP-AMP synthase [1]) [nM] | IC50 (Cyclic GMP-AMP synthase [2]) [nM] | IC50 (Cyclic GMP-AMP synthase [3]) [nM] | Compound
60 | ≤ 500 | ≤ 2500 | ≥ 10000 | CN1C(=O)S/C(=C\c2cc(OCc3cncnc3N)c(O)cc2Br)C1=O
61 | ≤ 500 | 2500 to 10000 | – | CC(Oc1cc(/C=C2\Sc3ncc(F)cc3C2=O)c(Br)c(F)c1O)c1cnc(N)nc1 (stereo not drawn)
62 | ≥ 10000 | – | – | C/N=C1/S/C(=C\c2cc(OC)c(O)cc2Br)C(=O)N1C
63 | ≤ 500 | – | – | Nc1ncc(/C=C/c2cc(/C=C3\Sc4ncccc4C3=O)c(Br)cc2O)cn1
64 | ≥ 10000 | – | – | CCC/N=C1/S/C(=C\c2cc(OC)c(O)cc2Br)C(=O)N1C
65 | ≤ 500 | 2500 to 10000 | – | Nc1ncc(COc2cc(/C=C3\Sc4ncccc4C3=O)c(Br)cc2O)c(C2CC2)n1
66 | ≤ 500 | – | – | CC(Oc1cc(/C=C2\SC(=O)N(C)C2=O)c(Br)c(F)c1O)C(O)c1cncnc1N (stereo not drawn)
67 | ≤ 500 | – | – | CN1C(=O)S/C(=C\c2cc(OCCc3cnc(N)nc3N)c(O)c(F)c2Br)C1=O
68 | ≤ 500 | ≤ 2500 | ≥ 10000 | Cc1nc(N)ncc1COc1cc(/C=C2\SC(=O)N(C)C2=O)c(Br)c(F)c1O
69 | 500 to 10000 | ≥ 10000 | – | CC(Oc1cc(/C=c2\sc3nccn3c2=O)c(Br)c(F)c1O)c1cnc(N)nc1 (stereo not drawn)
70 | 500 to 10000 | ≤ 2500 | – | COc1cc(/C=C2\Sc3ccccc3C2=O)c(Br)cc1O
71 | ≤ 500 | 2500 to 10000 | – | Cc1ncc(COc2cc(/C=C3\Sc4ncccc4C3=O)c(Br)cc2O)cn1
72 | ≤ 500 | ≤ 2500 | ≥ 10000 | CN1C(=O)S/C(=C\c2cc(OCc3ccnc4[nH]cnc34)c(O)cc2Br)C1=O
73 | ≤ 500 | 2500 to 10000 | – | Cc1ncc(COc2cc(/C=C3\SC(=O)C(C)C3=O)c(Br)c(F)c2O)c(N)n1 (stereo not drawn)
74 | ≤ 500 | – | – | [2H]C(C)(Oc1cc(/C=C2\SC(=O)N(C)C2=O)c(Br)c(F)c1O)c1cnc(N)nc1 (stereo not drawn)
75 | ≥ 10000 | – | – | CC/N=C1/S/C(=C\c2cc(OC)c(O)cc2Br)C(=O)N1C
76 | ≤ 500 | 2500 to 10000 | – | O=C1/C(=C/c2cc(OCc3cnc(Cl)nc3)c(O)cc2Br)Sc2ncccc21
77 | ≤ 500 | ≤ 2500 | – | CC(Oc1cc(/C=C2\SC(=O)N(C)C2=O)c(Br)c(F)c1O)c1cnc(N)nc1 (stereo not drawn)
78 | ≤ 500 | ≥ 10000 | – | CN1C(=O)S/C(=C\c2cc(OCc3cncnc3N)c(O)c(F)c2Br)C1=O
79 | ≤ 500 | ≤ 2500 | – | CCOc1cc(/C=C2\SC(=O)N(C)C2=O)c(Br)cc1O
80 | ≤ 500 | 2500 to 10000 | – | CC(Oc1cc(/C=C2\Sc3ncccc3C2=O)c(Br)c(F)c1O)c1cnc(N)nc1 (stereo not drawn)
81 | ≤ 500 | ≤ 2500 | ≥ 10000 | CN1C(=O)S/C(=C\c2cc(OCc3cncnc3)c(O)cc2Br)C1=O
